Results published in US9040691B2, “Hydroxymethylaryl-substituted pyrrolotriazines as ALK1 inhibitors” (BAYER INTELLECTUAL PROPERTY GMBH, priority 2011, dated 2015).

Tests used:
[1] = tested on: hSmad7 mRNA in BMP9-stimulated HUVEC; assay: Smad7 target gene induction: HUVEC cell assay and TaqMan expression analysis; format: cell-based, human; conditions: Homo sapiens, 3 h, 1 ng/ml BMP9 for 3 h, Smad7 mRNA by TaqMan
Description: B-2b. Smad7 Target Gene Induction: HUVEC Cell Assay and TaqMan Expression Analysis
The in vitro potency of ALK1 inhibitors was tested in a cell-based assay. Bone morphogenetic protein 9 (BMP9) induces Smad7 mRNA expression in human vascular endothelial cells (HUVEC) via activation of ALK1.
1.5×10^4 passage 2 HUVECs (Lonza, Basel, Switzerland) per well were seeded in a 96-well plate in EBM-2 medium containing EGM-2 additives and growth factors (Lonza, CC-3156 and CC-4176). After 4 h, the medium was changed to EBM-2 with 0.2% fetal calf serum (FCS) and the cells were starved for 20 h in a humidified incubator at 37° C., 5% CO2. Test compounds were added at 11 different concentrations between 0 and 10 000 nM one hour prior to stimulation of the cells for 3 h with recombinant human BMP9 protein at 1 ng/ml (dissolved in 4 mM hydrochloric acid, 0.1% BSA at 10 μg/ml; R&D Systems, Minneapolis, Minn., USA, 3209BP). Medium was removed, and the cells were lysed in 100 μl RLT buffer (Qiagen, Hilden, Germany). RNA was isolated using the Qiagen RNeasy 96 Kit (order-No. 74182) according to manufacturer's instructions and eluted from the columns with 65 μl RNAse-free water. Reverse transcription for quantitative RT-PCR was carried out with the Omniscript Kit (Qiagen, 205113) in RNAse-free 96-well round-bottom plates. Per well, 6.8 μl of a reaction master mix containing 2 μl 10×RT-buffer, 2 μl dNTPs (5 mM each), 1.6 μl random primer N6 (125 μM), 0.25 μl Rnase Out (40 U/μl) and 1 μl Omniscript Reverse Transcriptase were added. After addition of 13.2 μl of the RNA/water mixture, plate contents were mixed, incubated for 1 h at 37° C. and the total volume adjusted to 100 μl in each well by addition of 80 μl RNAse-free water.
The quantification of human Smad7 mRNA was carried out on a TaqMan using the Eurogentec qPCR Mastermix Plus (RT-QP2X-03-075+; Cologne, Germany) and employing human L32 as housekeeping reference mRNA. Per qPCR reaction, 2.8 μl primer mix, 10 μl master mix, 2.2 μl water and 5 μl cDNA were added. Thermal cycling parameters were 2 min at 50° C., followed by 10 min at 95° C., followed by 40 cycles of melting at 95° C. for 15 sec and annealing/extending at 60° C. for 1 min.
Smad7 mRNA levels induced by 1 ng/ml BMP9 without the addition of any inhibitor were set at 100% induction, and % inhibition was calculated for each test compound with this value. For each test compound, every value was determined in quadruplicate. The IC50 values were determined using Microsoft Excel. The fitting method used was a weighted, unconstrained ML-fit.

ALK1 kinase [2] = target: T1, ALK1 kinase (Homo sapiens (Human), UniProt P37023); assay: ALK1 kinase assay (ProQinase protocol); format: biochemical; conditions: ProQinase radiometric assay, casein, γ-33P-ATP
T1 sequence (P37023 22-503): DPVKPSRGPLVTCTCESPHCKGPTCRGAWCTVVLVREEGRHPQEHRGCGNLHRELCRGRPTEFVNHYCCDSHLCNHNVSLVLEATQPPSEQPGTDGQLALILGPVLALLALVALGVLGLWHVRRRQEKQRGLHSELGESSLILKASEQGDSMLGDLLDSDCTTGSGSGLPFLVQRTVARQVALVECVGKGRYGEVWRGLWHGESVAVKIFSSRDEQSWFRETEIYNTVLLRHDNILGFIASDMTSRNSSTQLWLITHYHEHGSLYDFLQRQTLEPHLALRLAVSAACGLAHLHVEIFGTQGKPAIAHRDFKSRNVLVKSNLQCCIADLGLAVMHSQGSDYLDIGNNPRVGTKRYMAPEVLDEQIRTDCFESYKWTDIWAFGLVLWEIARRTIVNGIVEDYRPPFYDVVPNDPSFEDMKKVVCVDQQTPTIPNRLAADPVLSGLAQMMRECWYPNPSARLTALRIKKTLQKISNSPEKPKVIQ
Description: B-1b. ALK1 Kinase Assay (ProQinase Protocol)
ALK1 (Invitrogen, Carlsbad, Calif., USA) kinase activity was measured at ProQinase GmbH (Freiburg, Germany) in a radiometric assay using γ-^33P-ATP and casein (Sigma, St. Louis, Mo., USA) as substrate in 96-well PerkinElmer FlashPlates™ (Boston, Mass., USA). The compounds were tested at 10 concentrations in the range of 1×10^−4 M to 3×10^−9 M in a total volume of 50 μl with a final DMSO concentration of 1% each. The assay components were mixed in the order: • 20 μl assay buffer (70 mM HEPES-NaOH, pH 7.5, 3 mM MgCl2, 3 mM MnCl2, 2 μM sodium orthovanadate, 1.2 mM DTT); • 5 μl γ-^33P-ATP (1.0 μM in water, approx. 6×10^5 cpm per well); • 5 μl test compound solution (in 10% DMSO); • […] (200 μg/ml, 1.0 μg/50 μl final concentration)/enzyme (4 μg/ml, 20 ng/50 μl=5.5 nM final concentration) solution (1:1 mixture).
The reaction mixtures were incubated at 30° C. for 60 minutes and stopped by adding 50 μl 2% (v/v) phosphoric acid. The plates were aspirated and washed twice with 200 μl 0.9% (w/v) sodium chloride. Incorporation of ^33Pi was determined with a microplate scintillation counter (Microbeta, Wallac). All assays were performed using a BecicmanCoulter/SAGIAN™ Core System.
Median values obtained from unspecific substrate binding of labelled. ATP were set as background level, while median values measured in the absence of any inhibitor were considered to reflect full activity of ALK1 kinase. The background activity (ba) was subtracted from the full activity (fa) value as well as from the values obtained from the test compound containing samples (test compound activity, tea). The residual activity in the latter was calculated as follows: residual activity (%)=100×[(tca−ba)/(fa−ba)]
The residual activities for each concentration and the compound IC50 values were calculated using Quattro Workflow V3.1.0 (Quattro Research GmbH, Munich, Germany). The fitting model for the IC50 determinations was “Sigmoidal response (variable slope)” with parameters “top” fixed at 100% and “bottom” at 0%. The fitting method used was a least-squares fit.

ALK1 kinase [3] = target: T1, ALK1 kinase; assay: In vitro enzyme inhibition using scintillation of incorporated radio label (flashplate assay); format: biochemical; conditions: biotinylated α-casein, 33P-ATP, 500 nM ATP
Description: B-1a. In Vitro Enzyme Inhibition Using Scintillation of Incorporated Radio Label (Flashplate Assay)
Test compounds diluted in DMSO are mixed with a suitable substrate/co-substrate (here: biotinylated α-casein and ^33P-ATP) in a corresponding assay buffer. Addition of the enzyme of interest (here: ALK1 kinase) starts the enzyme reaction. The enzyme-catalyzed incorporation of radio label into the substrate is measured via scintillation. Incorporated radio label is separated from free radio label via specific binding of the biotinylated substrate to strepavidin-coated microtiter plates (flashplates) and concomitant washing steps. The scintillation signal intensity (counts per minutes, cpm) is proportional to the enzyme activity. Enzyme inhibition results in a decreased signal intensity. IC50 values of the test compounds are determined by cpm-versus-[I] plots.
Reaction buffer contains 50 mM Tris pH 8.0 (Sigma), 1 mM MnCl2 (Sigma), 0.01% Nonidet P40 (Fluka), 0.5× Complete EDTA-free protease inhibitors (Roche; contains a mixture of several protease inhibitors for the inhibition of serine and cysteine (but not metallo-) proteases; 1 tablet contains protease inhibitors sufficient for a 50 ml cell extract; the concentration used in this assay corresponds to 1 tablet in 100 ml).
• 1.) Stop solution: Dulbecco's PBS (PAA, Pasching, Austria), 25 mM EDTA (Sigma), 25 μM ATP (Roche), 0.05% Triton X-100 (Sigma); • 2.) Saturation buffer: Dulbecco's PBS (PAA, Pasching, Austria), 100 μM ATP (Roche), 0.2% Triton X-100 (Sigma); • 3.) Wash buffer: Dulbecco's PBS (PAA, Pasching, Austria). Enzyme Solution:
ALK1 (Invitrogen, Paisley, United Kingdom) stock solution (35.7 ng/μl) is diluted to 4 ng/μl; final concentration in the reaction is 1 ng/μl.
Dephosphorylated α-casein (Sigma) is biotinylated according to the manufacturer's protocol (Pierce, Bonn, Germany) resulting in a stock solution of 61.6 μM. Briefly, EZ-Link® Biotin reagent (sulfosuccinimidyl-6-(biotinamido)hexanoate; Pierce, Bonn, Germany) is added in equal molarity to α-casein and incubated on ice for 2 h. Afterwards, the biotin reagent is removed by dialysis (2×2 h and overnight).
A 100 mM solution of cold (unlabelled) ATP (Roche) is diluted 1:100 before each test. For the substrate mix, α-casein is diluted to 2.22 μM resulting in a final concentration of 1 μM α-casein in the reaction. Additionally, cold ATP is added to give a 1.11 μM solution which results in a final concentration of 500 nM in the reaction.
Radioactive ATP Solution:
The stock solution (9.25 MBq/25 μl of ^33P-ATP; Perkin Elmer, Rodgau, Germany) is diluted to 651.2 Bq/μl.
Compounds are dissolved in 100% DMSO (10 mM stock solution) and diluted to 2 mM. Further dilutions are made stepwise 1:3.16 in DMSO.
A volume of 9 μl substrate solution is provided into each well of a 384 well microliter plate (Greiner Bio-One, Solingen, Germany), 1 μl compound solution and 5 μl of the radioactive ATP solution are added. Enzyme reaction starts with addition of 5 μl of enzyme solution. The mixture is incubated for 60 minutes at room temperature and then stopped by addition of 10 μl stop solution. The 384 well microliter flashplates (Perkin Elmer, Rodgau, Germany) are saturated with 50 μl saturation buffer per well for at least 60 minutes. Subsequently, a volume of 20 μl is discarded and replaced with 20 μl of the stopped ALK1 reaction mixture. Binding of biotinylated substrate to the flashplate is allowed for by overnight incubation at room temperature. Bound substrate is separated from unbound components through repeated washing steps (3×50 μl washing buffer per well). Finally, 50 μl washing buffer is added, and the scintillation signal (cpm) is measured in a suitable counter (Perkin Elmer, Rodgau, Germany).

IC50 (ALK1 kinase [2]) [µM]	IC50 (ALK1 kinase [3]) [µM]	Compound	IC50 [1] [µM]
< 0.003		CCc1cc(-c2cc(C3CCNC3)n3ncnc(N)c23)cc(F)c1CO (racemic) [Example 37, rac-{4-[4-Amino-7-(pyrrolidin-3-yl)pyrrolo[2,1-f][1,2,4]triazin-5-yl]-2-ethyl-6-fluorophenyl}-methanol]	0.33
0.004		CCc1cc(-c2cc(C3CCCNC3)n3ncnc(N)c23)cc(F)c1CO (racemic) [Example 38, rac-{4-[4-Amino-7-(piperidin-3-yl)pyrrolo[2,1-f][1,2,4]triazin-5-yl]-2-ethyl-6-fluorophenyl}-methanol]	
0.0057		CCc1cc(-c2cc(C(O)C3CC3)n3ncnc(N)c23)cc(F)c1CO (racemic) [Example 39, rac-{4-Amino-5-[3-ethyl-5-fluoro-4-(hydroxymethyl)phenyl]pyrrolo[2,1-f][1,2,4]triazin-7-yl}-(cyclopropyl)methanol]	0.5
0.124	0.17	CCc1cc(-c2cc([C@H]3CC[C@H](O)CC3)n3ncnc(N)c23)cc(F)c1CO [Example 28, trans-4-{4-Amino-5-[3-ethyl-5-fluoro-4-(hydroxymethyl)phenyl]pyrrolo[2,1-f][1,2,4]triazin-7-yl}-cyclohexanol]	
